Test system: bacterial populations native to the test sample
Experiment: Minimum inhibitory concentration screen of biocides under anaerobic conditions (pH indicator dye)
Assay type: cell-based
Settings: pH 6.5, read-out: Minimum Inhibitory Concentration
Excerpt: A few exemplary biocides or a combination of one or more quaternary ammonium compounds with one additional biocide were investigated for their ability to inhibit microorganism growth. The method used to generate the data in Table 1 was based on methods for identifying the minimum inhibitory concentration of biocides or biocidal agents for use in anaerobically contaminated aqueous system as disclosed in the patent publication WO9934013A1 by Schwingel, et. al.
The method was a test assay used to rapidly screen antimicrobial agents against bacterial populations native to the test sample under anaerobic conditions. The assay utilized a pH indicator dye which is red at pH levels above 6.5 and yellow below pH 6.5. During fermentation under anaerobic conditions, volatile fatty acids were produced, which lowered the pH of the system. In the test wells, the accumulation of volatile fatty acids from actively growing and fermenting microorganisms lowered the pH causing the indicator dye to turn yellow. […]
When the control sample had turned yellow due to active fermentation and acid production, all samples were examined for color change, and the Minimum Inhibitory Concentration (MIC) values recorded. […] Because MIC values change with extended contact time, it was important to read the MIC values within 2-3 hours of the control wells turning yellow. […]

Structure (SMILES)	MIC
CN1CSC(=S)N(C)C1 [3,5-dimethyl-tetrahydro-2H-1,3,5-thiadiazine-2-thione]	26.2 µg/mL
N#CSCSC#N [Methylenebisthiocyanate]	0.8 to 1.6 µg/mL

— patent US11844349B2, “Anti-microbial agent to control biomass accumulation in SO2 scrubbers” (ECOLAB USA INC., priority 2016, dated 2023)
